Test results taken from ChEMBL document CHEMBL1201862, “PubChem BioAssay data set” (2004).
The source made the active and inactive calls.

Assays:
[1] = target: DNA dC->dU-editing enzyme APOBEC-3G (Homo sapiens, UniProt Q9HC16); assay: Dose Response confirmation of small molecule APOBEC3G DNA Deaminase Inhibitors via a fluorescence-based single-stranded DNA deaminase assay. [Related pubchem assays (depositor defined):AID493012, AID493028]; type: functional
[2] = target: FAD-linked sulfhydryl oxidase ALR (Homo sapiens, UniProt P55789); assay: inhibitors of human ALR sulfhydryl oxidase, dose response, biochemical, H2O2 detection, luminescence, cherry-pick (AID 493248)
[3] = target: DNA dC->dU-editing enzyme APOBEC-3A (Homo sapiens, UniProt P31941); assay: APOBEC3A DNA deaminase inhibitors, dose response, biochemical (AID 504722); type: functional
Melanocortin receptor 4 = Melanocortin receptor 4 (Homo sapiens, UniProt P32245); type: functional, cell-based;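 also: Cell-based assay with luminescence read-out, confirmatory dose-response testing for agonist activity of biased ligands at MC4R; human U2OS cells with tagged receptor and beta-arrestin; potency of agonists that increase receptor coupling to beta-arrestin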
[4] = target: G-protein coupled receptor 55 (Homo sapiens, UniProt Q9Y2T6); assay: GPR55 antagonists blocking LPI-driven arrestin recruitment, primary screen, imaging, U2OS, beta-arrestin-GFP, LPI agonist (AID 2013); type: functional;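 also: antagonist potency measured as reduced agonist-driven arrestin aggregation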
[5] = microbe, parasite or virus in culture; type: functional; details: Mycobacterium tuberculosis
[6] = target: T1, Carboxy-terminal domain RNA polymerase II polypeptide A small phosphatase 1 (Homo sapiens, UniProt Q9GZU7); assay: inhibitors of CTDSP1, concentration-response testing, biochemical assay, absorbance-based, actives from ultra-high-throughput screening (AID 540297); type: functional
T1 sequence (Q9GZU7 whole entry): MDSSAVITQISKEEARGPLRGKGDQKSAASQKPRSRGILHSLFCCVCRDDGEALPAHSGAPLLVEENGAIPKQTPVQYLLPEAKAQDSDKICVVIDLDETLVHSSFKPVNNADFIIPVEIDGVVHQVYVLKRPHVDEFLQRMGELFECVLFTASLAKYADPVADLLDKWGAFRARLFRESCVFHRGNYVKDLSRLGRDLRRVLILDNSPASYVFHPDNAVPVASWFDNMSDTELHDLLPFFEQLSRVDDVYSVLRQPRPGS

[7] = target: DNA (cytosine-5)-methyltransferase 1 (Homo sapiens, UniProt P26358); assay: DNMT1 methyltransferase inhibitors, confirmation, biochemical, fluorescent molecular beacon (AID 602386); type: functional
Estrogen receptor = target: T2, Estrogen receptor (Homo sapiens, UniProt P03372);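 also: potency for inhibiting coactivator peptide recruitment to the receptor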
T2 sequence (P03372 whole entry): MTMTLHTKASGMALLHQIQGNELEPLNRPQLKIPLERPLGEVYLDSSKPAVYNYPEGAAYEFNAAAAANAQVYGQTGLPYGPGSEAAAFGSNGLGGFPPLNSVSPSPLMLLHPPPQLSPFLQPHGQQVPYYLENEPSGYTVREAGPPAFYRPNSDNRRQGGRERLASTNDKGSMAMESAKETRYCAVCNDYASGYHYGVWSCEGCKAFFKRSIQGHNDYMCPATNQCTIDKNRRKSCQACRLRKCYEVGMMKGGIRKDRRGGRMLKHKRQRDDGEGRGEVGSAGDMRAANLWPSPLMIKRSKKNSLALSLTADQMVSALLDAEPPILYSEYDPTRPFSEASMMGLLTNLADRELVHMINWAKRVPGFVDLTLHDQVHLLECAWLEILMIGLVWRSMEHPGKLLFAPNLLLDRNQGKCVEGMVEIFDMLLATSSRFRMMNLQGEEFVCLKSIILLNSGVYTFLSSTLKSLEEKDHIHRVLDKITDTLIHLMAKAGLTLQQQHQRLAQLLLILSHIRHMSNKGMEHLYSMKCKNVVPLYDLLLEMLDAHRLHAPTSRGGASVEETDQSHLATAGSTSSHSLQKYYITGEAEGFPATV

[8] = target: Induced myeloid leukemia cell differentiation protein Mcl-1 (Homo sapiens, UniProt Q07820); type: functional
Estrogen receptor beta [9] = target: T3, Estrogen receptor beta (Homo sapiens, UniProt Q92731);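 also: recombinant ER-beta bound to coactivator SRC1 peptide in presence of estradiol agonist; inhibitors block coactivator peptide binding and lower the FRET signal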
[10] = target: Eukaryotic translation initiation factor 4H (Homo sapiens, UniProt Q15056); assay: eIF4H inhibition in translation initiation, SAR follow-up (AID 435011); type: functional
Estrogen receptor beta [11] = target: T3, Estrogen receptor beta; assay: ERβ–SRC-3 coactivator interaction inhibitors, confirmation, orthogonal assay, biochemical, ELISA, streptavidin-HRP readout (AID 1060)
[12] = target: Polyadenylate-binding protein 1 (Homo sapiens, UniProt P11940); assay: PABP inhibition in translation initiation, SAR follow-up (AID 435018); type: functional
[13] = inhibitors of HIV Env-driven cell fusion, dose response, cherry-pick (AID 652057); type: functional, cell-based
[14] = ZM109 Env clade C HIV-1 fusion inhibitors, dose response, HeLa effector, CEM target cells, luciferase, cherry-pick (AID 652058); type: functional, cell-based
[15] = off-target signal loss in HeLa-CEM21 co-culture – HeLa F-luc CTL cells, cherry-picked, counter-screen for HIV-1 Env fusion inhibitor project, dose response (AID 652040); type: functional, cell-based;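 also: potency for signal decrease marking cytotoxic or nonspecific inhibition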
Hexokinase HKDC1 = target: T4, Hexokinase HKDC1 (Homo sapiens, UniProt Q2TB90); assay: HKDC1 hexokinase inhibitors, dose response, biochemical, W721R variant (AID 504729); type: functional
T4 sequence (Q2TB90 whole entry): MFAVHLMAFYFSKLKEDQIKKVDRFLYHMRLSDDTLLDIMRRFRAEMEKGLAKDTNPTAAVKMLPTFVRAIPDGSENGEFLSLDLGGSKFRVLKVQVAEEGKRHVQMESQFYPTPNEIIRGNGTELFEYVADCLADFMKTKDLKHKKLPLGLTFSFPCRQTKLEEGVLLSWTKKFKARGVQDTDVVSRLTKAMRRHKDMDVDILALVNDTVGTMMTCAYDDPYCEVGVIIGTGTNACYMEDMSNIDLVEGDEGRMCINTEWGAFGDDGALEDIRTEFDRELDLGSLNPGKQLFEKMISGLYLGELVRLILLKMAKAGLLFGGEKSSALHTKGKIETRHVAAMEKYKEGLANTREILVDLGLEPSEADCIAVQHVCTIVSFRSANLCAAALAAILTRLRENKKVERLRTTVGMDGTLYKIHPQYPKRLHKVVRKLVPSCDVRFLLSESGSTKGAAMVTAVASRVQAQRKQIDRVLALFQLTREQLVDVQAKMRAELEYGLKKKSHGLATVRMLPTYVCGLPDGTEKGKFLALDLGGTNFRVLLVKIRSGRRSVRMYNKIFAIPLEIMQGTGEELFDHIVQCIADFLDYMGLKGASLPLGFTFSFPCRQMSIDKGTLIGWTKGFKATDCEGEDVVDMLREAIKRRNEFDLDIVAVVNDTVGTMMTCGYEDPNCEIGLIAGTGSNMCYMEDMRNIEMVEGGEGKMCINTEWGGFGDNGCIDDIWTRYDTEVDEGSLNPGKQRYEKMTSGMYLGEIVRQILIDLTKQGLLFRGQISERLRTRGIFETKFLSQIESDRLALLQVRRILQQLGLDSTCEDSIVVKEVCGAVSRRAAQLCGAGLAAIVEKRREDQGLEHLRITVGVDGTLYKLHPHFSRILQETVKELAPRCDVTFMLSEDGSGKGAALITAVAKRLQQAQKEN

Genome polyprotein = Genome polyprotein (dengue virus type 2, UniProt P29990); assay: Dengue-2 NS5 methyltransferase inhibitors, primary screen, biochemical, confirmation dose response (AID 588689); type: functional
[16] = target: T5, Lysine-specific demethylase 4C (Homo sapiens, UniProt Q9H3R0); assay: GASC-1 (JMJD2C) histone demethylase inhibitors, dose response, biochemical, DELFIA europium, cherry-picked samples (AID 488835); type: functional
T5 sequence (Q9H3R0 whole entry): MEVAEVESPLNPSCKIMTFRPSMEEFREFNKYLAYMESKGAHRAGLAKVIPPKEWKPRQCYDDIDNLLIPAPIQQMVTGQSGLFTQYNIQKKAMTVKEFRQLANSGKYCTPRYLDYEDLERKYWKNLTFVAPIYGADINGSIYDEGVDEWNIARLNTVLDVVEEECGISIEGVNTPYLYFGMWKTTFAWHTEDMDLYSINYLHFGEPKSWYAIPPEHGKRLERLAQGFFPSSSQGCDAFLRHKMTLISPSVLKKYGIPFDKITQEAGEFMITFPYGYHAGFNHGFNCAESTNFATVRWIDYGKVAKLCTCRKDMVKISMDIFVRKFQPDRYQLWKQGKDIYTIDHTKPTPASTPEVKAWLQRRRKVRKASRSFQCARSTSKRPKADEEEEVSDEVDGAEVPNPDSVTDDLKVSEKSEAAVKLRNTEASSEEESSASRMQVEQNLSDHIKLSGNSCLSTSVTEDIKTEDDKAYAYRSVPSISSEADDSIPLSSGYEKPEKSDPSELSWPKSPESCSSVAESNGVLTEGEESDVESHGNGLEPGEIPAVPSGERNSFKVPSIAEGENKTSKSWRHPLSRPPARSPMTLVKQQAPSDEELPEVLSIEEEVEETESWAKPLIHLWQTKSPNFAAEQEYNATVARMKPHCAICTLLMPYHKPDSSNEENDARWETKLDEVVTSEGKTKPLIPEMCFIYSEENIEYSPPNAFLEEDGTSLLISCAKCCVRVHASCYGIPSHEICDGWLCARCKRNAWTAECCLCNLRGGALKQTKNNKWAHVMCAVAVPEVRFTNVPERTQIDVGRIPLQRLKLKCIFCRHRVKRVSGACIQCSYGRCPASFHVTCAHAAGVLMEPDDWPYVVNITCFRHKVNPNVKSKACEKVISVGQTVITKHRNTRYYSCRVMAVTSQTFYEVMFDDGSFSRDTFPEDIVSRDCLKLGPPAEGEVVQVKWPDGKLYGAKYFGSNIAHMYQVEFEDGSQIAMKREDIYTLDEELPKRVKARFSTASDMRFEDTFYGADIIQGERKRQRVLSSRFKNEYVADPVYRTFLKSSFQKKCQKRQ

Vero = Vero cell cytotoxicity, cytotoxicity control for flavivirus capping enzyme inhibitors (AID 588742); type: functional; details: Chlorocebus sabaeus
Beta-galactosidase = Beta-galactosidase (Escherichia coli, UniProt Q8VNN2); assay: beta-galactosidase enzyme inhibitors and activators, dose response, artefact control for CCR6 antagonist project, biochemical, E. coli enzyme, set 3 (AID 504712); type: functional
[17] = target: T6, Mannose-6-phosphate isomerase (Homo sapiens, UniProt P34949); assay: inhibitors of human PMI, primary screen, biochemical, fluorescence intensity, coupled assay (AID 1209)
T6 sequence (P34949 whole entry): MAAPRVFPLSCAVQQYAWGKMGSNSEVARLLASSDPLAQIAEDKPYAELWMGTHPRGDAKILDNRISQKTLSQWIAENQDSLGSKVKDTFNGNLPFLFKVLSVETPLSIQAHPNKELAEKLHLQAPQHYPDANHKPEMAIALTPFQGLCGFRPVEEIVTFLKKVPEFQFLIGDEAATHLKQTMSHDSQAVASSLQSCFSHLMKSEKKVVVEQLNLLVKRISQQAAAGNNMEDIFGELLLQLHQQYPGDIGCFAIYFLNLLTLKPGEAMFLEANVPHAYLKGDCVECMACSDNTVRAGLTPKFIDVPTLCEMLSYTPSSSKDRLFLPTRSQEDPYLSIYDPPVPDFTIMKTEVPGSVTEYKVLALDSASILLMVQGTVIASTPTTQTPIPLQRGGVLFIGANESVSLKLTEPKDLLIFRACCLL

[18] = target: T6, Mannose-6-phosphate isomerase; assay: human PMI inhibitors, high substrate, primary screen, biochemical, fluorescence intensity, high mannose 6-phosphate (AID 1220)
Hexokinase = Hexokinase (Trypanosoma brucei, UniProt Q38C41); assay: Confirmation assay for inhibitors of Trypanosoma brucei hexokinase 1-Analogue-first series. [Related pubchem assays (depositor defined):AID1430, AID1632, AID2516, AID2560, AID2579, AID2600, AID449725, AID492951]; type: functional
[19] = target: T7, Voltage-gated N-type calcium channel alpha-1B subunit/Amyloid beta A4 precursor protein-binding family A member 1 (Homo sapiens, UniProt Q00975+Q02410); type: protein assay
[20] = target: T7, Voltage-gated N-type calcium channel alpha-1B subunit/Amyloid beta A4 precursor protein-binding family A member 1; type: protein assay; remark: listed apart in the source
NS3 = NS3 (Hepatitis C virus, UniProt A3EZJ3); assay: PubChem AID 2173; design: species or system Hepacivirus hominis
Chain of NS3 (A3EZJ3 whole entry): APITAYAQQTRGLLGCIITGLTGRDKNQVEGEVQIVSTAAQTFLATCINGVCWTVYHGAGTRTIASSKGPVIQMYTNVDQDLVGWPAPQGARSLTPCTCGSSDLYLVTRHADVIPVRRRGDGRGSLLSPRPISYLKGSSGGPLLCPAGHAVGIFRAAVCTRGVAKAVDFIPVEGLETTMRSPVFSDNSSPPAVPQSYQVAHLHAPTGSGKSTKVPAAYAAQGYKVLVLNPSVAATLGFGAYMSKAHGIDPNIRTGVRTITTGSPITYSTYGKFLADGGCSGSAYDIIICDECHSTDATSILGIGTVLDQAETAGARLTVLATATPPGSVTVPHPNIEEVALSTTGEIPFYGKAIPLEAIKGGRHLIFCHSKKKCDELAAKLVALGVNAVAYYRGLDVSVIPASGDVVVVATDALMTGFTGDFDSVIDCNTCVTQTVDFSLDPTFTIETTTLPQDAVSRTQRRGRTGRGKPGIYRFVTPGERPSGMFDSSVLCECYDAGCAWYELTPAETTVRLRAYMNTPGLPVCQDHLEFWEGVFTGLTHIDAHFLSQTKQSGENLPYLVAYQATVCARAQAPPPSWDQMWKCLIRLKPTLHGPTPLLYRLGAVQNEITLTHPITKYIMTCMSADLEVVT

Chain of Hexokinase (Q38C41 whole entry): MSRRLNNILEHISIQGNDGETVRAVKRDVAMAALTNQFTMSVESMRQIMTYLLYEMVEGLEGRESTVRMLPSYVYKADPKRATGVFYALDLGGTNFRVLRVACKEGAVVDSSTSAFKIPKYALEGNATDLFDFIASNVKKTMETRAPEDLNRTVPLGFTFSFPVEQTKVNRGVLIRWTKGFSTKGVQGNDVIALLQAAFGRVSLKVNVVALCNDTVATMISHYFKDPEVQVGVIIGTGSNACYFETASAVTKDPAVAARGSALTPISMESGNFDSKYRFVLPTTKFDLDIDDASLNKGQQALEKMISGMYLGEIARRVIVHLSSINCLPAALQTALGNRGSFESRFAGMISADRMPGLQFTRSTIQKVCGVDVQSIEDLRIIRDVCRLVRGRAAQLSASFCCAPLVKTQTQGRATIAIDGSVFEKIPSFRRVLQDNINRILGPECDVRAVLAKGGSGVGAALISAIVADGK
Chain of DNA dC->dU-editing enzyme APOBEC-3G (Q9HC16 whole entry): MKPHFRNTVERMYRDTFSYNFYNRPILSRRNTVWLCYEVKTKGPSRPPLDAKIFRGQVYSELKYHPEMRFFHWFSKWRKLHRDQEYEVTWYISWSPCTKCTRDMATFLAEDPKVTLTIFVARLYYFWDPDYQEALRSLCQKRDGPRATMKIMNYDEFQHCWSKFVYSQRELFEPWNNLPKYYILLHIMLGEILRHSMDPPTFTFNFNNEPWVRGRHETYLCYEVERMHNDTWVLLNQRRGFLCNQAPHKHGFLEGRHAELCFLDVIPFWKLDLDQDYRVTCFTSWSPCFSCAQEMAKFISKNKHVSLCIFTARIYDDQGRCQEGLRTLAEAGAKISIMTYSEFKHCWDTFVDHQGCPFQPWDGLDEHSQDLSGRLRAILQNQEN
Chain of DNA dC->dU-editing enzyme APOBEC-3A (P31941 whole entry): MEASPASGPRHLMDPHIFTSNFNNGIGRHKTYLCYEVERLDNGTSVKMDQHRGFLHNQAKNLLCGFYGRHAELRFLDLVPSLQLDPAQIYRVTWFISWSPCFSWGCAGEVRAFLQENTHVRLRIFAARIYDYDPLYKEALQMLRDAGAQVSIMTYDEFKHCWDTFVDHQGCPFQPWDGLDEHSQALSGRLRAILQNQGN
Chain of G-protein coupled receptor 55 (Q9Y2T6 whole entry): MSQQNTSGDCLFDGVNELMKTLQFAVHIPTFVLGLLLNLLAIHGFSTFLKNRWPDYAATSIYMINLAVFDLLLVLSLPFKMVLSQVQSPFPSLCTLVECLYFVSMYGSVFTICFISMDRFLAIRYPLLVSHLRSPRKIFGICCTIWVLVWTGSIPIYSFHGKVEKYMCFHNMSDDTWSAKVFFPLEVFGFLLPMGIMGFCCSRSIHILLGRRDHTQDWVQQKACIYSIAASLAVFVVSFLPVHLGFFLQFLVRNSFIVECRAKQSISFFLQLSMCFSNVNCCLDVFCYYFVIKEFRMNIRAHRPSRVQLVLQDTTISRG
T3 sequence (Q92731 whole entry): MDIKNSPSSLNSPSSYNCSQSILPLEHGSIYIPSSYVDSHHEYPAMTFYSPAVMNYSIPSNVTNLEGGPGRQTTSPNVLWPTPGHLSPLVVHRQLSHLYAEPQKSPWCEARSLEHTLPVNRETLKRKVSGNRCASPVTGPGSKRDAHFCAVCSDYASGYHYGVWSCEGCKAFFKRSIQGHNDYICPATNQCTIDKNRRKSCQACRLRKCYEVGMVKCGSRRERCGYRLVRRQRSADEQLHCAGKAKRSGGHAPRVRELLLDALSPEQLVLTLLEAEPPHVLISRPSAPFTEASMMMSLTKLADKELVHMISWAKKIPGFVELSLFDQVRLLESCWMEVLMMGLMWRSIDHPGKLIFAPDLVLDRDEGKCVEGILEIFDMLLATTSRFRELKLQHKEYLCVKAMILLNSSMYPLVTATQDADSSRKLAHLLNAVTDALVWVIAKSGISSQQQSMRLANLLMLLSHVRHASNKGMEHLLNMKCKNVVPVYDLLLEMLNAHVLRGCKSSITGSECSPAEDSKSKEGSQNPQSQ
Chain of Beta-galactosidase (Q8VNN2 whole entry): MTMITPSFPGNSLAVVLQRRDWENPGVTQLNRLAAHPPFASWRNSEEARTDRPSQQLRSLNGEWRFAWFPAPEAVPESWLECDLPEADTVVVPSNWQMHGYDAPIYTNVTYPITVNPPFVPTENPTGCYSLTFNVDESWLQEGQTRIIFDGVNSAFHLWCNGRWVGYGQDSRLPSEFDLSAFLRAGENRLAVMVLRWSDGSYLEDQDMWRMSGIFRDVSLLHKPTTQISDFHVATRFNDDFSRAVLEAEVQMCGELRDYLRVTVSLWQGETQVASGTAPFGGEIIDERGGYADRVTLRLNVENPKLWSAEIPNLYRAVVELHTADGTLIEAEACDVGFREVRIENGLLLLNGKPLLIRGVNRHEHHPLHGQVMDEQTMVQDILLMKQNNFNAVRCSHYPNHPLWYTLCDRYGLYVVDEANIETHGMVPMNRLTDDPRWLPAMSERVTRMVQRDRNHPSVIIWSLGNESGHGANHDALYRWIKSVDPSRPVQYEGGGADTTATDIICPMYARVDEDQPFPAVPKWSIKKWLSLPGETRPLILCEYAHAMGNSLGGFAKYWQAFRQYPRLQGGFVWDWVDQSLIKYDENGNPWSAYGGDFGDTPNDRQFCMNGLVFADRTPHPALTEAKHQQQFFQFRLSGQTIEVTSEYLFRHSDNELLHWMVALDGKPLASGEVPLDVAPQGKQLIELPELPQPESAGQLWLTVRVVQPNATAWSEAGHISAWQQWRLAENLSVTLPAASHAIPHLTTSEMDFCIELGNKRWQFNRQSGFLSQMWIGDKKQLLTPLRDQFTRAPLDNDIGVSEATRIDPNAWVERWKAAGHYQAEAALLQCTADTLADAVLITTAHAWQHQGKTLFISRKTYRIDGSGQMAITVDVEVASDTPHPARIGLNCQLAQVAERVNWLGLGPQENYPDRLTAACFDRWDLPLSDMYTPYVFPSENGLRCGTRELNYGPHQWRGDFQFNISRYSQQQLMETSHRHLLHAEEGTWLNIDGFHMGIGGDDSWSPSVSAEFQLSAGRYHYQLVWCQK
Chain of Melanocortin receptor 4 (P32245 whole entry): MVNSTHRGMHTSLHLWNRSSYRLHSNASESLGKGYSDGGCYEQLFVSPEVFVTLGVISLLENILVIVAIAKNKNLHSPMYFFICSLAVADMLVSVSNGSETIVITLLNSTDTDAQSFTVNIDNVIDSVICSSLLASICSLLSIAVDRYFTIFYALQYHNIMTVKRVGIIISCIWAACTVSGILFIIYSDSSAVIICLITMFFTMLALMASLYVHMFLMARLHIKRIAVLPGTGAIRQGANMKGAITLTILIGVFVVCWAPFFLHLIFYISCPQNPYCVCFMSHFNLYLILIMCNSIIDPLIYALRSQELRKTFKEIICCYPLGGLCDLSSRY
Chain of Induced myeloid leukemia cell differentiation protein Mcl-1 (Q07820 whole entry): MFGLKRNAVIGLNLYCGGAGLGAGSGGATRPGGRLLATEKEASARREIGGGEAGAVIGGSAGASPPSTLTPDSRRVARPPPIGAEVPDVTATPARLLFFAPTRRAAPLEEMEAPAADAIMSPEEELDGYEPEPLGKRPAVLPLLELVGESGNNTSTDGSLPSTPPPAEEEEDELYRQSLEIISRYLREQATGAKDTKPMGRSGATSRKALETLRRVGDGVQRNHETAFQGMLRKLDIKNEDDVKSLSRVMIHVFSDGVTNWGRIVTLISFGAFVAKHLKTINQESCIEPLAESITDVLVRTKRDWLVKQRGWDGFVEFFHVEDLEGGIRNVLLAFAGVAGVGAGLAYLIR
Chain of FAD-linked sulfhydryl oxidase ALR (P55789 whole entry): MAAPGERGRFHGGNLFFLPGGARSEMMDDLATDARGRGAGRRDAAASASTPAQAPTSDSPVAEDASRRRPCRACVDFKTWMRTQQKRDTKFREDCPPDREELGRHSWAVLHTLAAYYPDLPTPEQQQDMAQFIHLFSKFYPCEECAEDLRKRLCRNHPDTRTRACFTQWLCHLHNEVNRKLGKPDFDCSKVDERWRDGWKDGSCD

## Cn1c(CSc2nc3ccccc3s2)n[nH]c1=S
[1]
  IC50: 4.35 µM (active)
[2]
  AC50: 1.82 µM (active)
[3]
  IC50: > 100 µM (inactive)

## OC(CNCCc1ccc(C(F)(F)F)cc1)COC(c1ccccc1)c1ccccc1 (stereo not drawn)
Melanocortin receptor 4
  EC50: > 89.2 µM (inactive)
[4]
  IC50: 2.65 µM (active)
[5]
  CC50: 24.5 µM (active)

## COc1ccc(N2Cc3cccc(C(=O)N4CCN(C(=O)c5ccco5)CC4)c3C2=O)cc1
[6]
  IC50: 4.24 µM (active)
[7]
  IC50: 9.04 µM (active)
Estrogen receptor
  IC50: 9.8 µM (active)
[8]
  IC50: 3.1 µM (active)
Estrogen receptor beta [9]
  IC50: 5.99 µM (active)
[10]
  IC50: 1.43 µM (active)
Estrogen receptor beta [11]
  IC50: > 50 µM (not active)
[12]
  IC50: 10.2 µM (active)

## COc1ccc(CCN2C(=O)c3[nH]nc(-c4ccccc4O)c3C2c2cccc(O)c2)cc1OC (stereo not drawn)
[4]
  IC50: 2.7 µM (active)
[13]
  AC50: 2.44 µM (active)
[14]
  AC50: 8.34 µM (active)
[15]
  AC50: 17.6 µM (active)

## CCOC(=O)C1=C(Cc2ccc(F)cc2)C(=O)c2ccccc2C1=O
Hexokinase HKDC1
  IC50: 11.4 µM (active)
Genome polyprotein
  IC50: 86.4 µM (active)
[16]
  AC50: 13.4 µM (active)
Vero
  CC50: > 40 µM (active)
Beta-galactosidase
  IC50: > 66.6 µM (inactive)

## Nn1c(S)nnc1Cc1ccc(Br)cc1
[17]
  IC50: > 50 µM (not active)
[18]
  IC50: > 50 µM (not active)
[1]
  IC50: 3.6 µM (active)
[3]
  IC50: > 100 µM (inactive)

## Cc1cccc(C(=O)Nc2cc(Cl)ccc2C(=O)O)c1
Hexokinase
  IC50: 22.3 µM (active)

## O=C(Cn1sc2ccccc2c1=O)Nc1ccc(C(F)(F)F)cc1
Hexokinase
  IC50: > 25 µM (inactive)

## O=C(COc1ccc(Cl)cc1)N/N=C/c1cccc2cccnc12
Beta-galactosidase
  IC50: > 66.6 µM (inactive)

## Cc1ccc(C2CC(=O)N3CN(c4ccc(Br)cc4)CSC3=C2C#N)o1 (stereo not drawn)
[19]
  IC50: 9.58 µM (active)
[20]
  IC50: 14 µM (active)
NS3
  IC50: 7.09 µM (active)
